Laboratory results published in patent US7338950B2, “Amide compounds as ion channel ligands and uses thereof” (Renovis, Inc., priority 2003, dated 2008).

These compounds were tested on VR1 receptor (293 cells expressing capsaicin-insensitive VR1 receptor variants) (assay: High throughput screening of VR1 antagonists using a calcium imaging assay (Fura2, pH 5.1 stimulus)). Settings: 1 uM compound; inhibition of calcium ion influx.
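Note: Fura2 ratiometric fluorescence read every 4 s over 3 min, response taken as peak ratio minus baseline before pre-treatment, compound pre-treatment preceding acid challenge.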
Description: A dual wavelength ratiometric dye, Fura2, was used as an indicator of relative levels of calcium ions in a 96 well format using a bench top scanning fluorometer with integrated fluidics and temperature control (Flex Station, Molecular Devices).
A dual wavelength ratiometric dye, Fura2, was used as an indicator of relative levels of [Ca2+] in a 96 well format using a bench top scanning fluorometer with integrated fluidics and temperature control (Flex Station, Molecular Devices).
293 cells were grown on PDL coated 96-well black-walled plates, in the presence of a DMEM medium containing 5% Penstrep, 5% Glutamax, 200 ug/mL Hygromycin, 5 μg/mL Blasticide and 10% heat inactivated FBS. Prior to assay, the cells were loaded with 5 μg/mL Fura2 in normal saline solution at 37° C. for 40 minutes. Cells were then washed with normal saline to remove the dye.
The assay consists of two stages; a pre-treatment phase followed by a treatment phase.
50 μl of a compound solution was added to the cells (Pre-treatment). Immediately following, 50 μl of the test compound in a saline solution at pH 5.1 was added. […] Changes in wavelength measurements were made throughout the course of the experiment in 4 second intervals over a period of 3 minutes. Responses were measured as peak fluorescence ratio after test compound addition minus baseline fluorescence ratio prior to pre-treatment and were calculated using SoftMaxPro softwareData were expressed as percentage inhibition calculated using Excel as follows:

Question: How did the “% Inhibition @ 1 uM” value turn out when `O=C(Nc1cccc(Cl)c1)c1ccc(-c2ncccc2Cl)c(F)c1` [Compound 1133] was run?
Answer: + (compound exhibited 0-25% inhibition of calcium ion influx induced by capsaicin stimulation)

Question: `O=C(Nc1ccc(C2CCCCC2)cc1)c1ccc(-c2ncccc2Cl)cn1` [Compound 1320] was tested. Which “% Inhibition @ 1 uM” value did it give?
Answer: ++++ (compound exhibited 75% or greater inhibition of calcium ion influx induced by capsaicin stimulation)

Question: For `COc1cc(C(=O)Nc2ccccc2C#N)ccc1-c1ncccc1Cl` [Compound 1209], which “% Inhibition @ 1 uM” value is on record?
Answer: + (compound exhibited 0-25% inhibition of calcium ion influx induced by capsaicin stimulation)

Question: Which “% Inhibition @ 1 uM” value does the source give for `COc1cc(C(=O)Nc2ccc3cn[nH]c3c2)ccc1-c1ncccc1Cl` [Compound 1264] here?
Answer: ++ (compound exhibited 25-50% inhibition of calcium ion influx induced by capsaicin stimulation)

Question: `O=C(Nc1ccc2ncccc2c1)c1ccc(-c2ncccc2Cl)c(F)c1` [Compound 1173] was tested. Which “% Inhibition @ 1 uM” value did it give?
Answer: ++++ (compound exhibited 75% or greater inhibition of calcium ion influx induced by capsaicin stimulation)

Question: Which “% Inhibition @ 1 uM” value does the source give for `COc1cc(C(=O)Nc2cccc(OC(F)(F)F)c2)ccc1-c1ncccc1Cl` [Compound 1269] here?
Answer: + (compound exhibited 0-25% inhibition of calcium ion influx induced by capsaicin stimulation)

Question: `COc1cc(C(=O)Nc2cc(OC)c(OC)c(OC)c2)ccc1-c1ncccc1Cl` [Compound 1263] was tested. Which “% Inhibition @ 1 uM” value did it give?
Answer: ++++ (compound exhibited 75% or greater inhibition of calcium ion influx induced by capsaicin stimulation)

Question: For `O=C(Nc1ccncc1)c1ccc(-c2ncccc2Cl)cc1` [Compound 1024], which “% Inhibition @ 1 uM” value is on record?
Answer: ++++ (compound exhibited 75% or greater inhibition of calcium ion influx induced by capsaicin stimulation)

Question: With `COc1cc(C(=O)Nc2ccccc2)ccc1-c1ncccc1Cl` [Compound 1206] as the compound, how does the “% Inhibition @ 1 uM” value read?
Answer: + (compound exhibited 0-25% inhibition of calcium ion influx induced by capsaicin stimulation)

Question: For `CC(C)Oc1cccc(NC(=O)c2ccc(-c3ncccc3Cl)cn2)c1` [Compound 1362], which “% Inhibition @ 1 uM” value is on record?
Answer: + (compound exhibited 0-25% inhibition of calcium ion influx induced by capsaicin stimulation)

Question: How did the “% Inhibition @ 1 uM” value turn out when `COc1ccc(NC(=O)c2ccc(-c3ncccc3Cl)cc2)cc1Cl` [Compound 1034] was run?
Answer: + (compound exhibited 0-25% inhibition of calcium ion influx induced by capsaicin stimulation)

Question: Which “% Inhibition @ 1 uM” value does the source give for `CCOc1cccc(NC(=O)c2ccc(-c3ncccc3Cl)cn2)c1` [Compound 1364] here?
Answer: ++++ (compound exhibited 75% or greater inhibition of calcium ion influx induced by capsaicin stimulation)

Question: How did the “% Inhibition @ 1 uM” value turn out when `O=C(Nc1cccc(OC(F)(F)F)c1)c1ccc(-c2ncccc2Cl)c(F)c1` [Compound 1193] was run?
Answer: + (compound exhibited 0-25% inhibition of calcium ion influx induced by capsaicin stimulation)

Question: Which “% Inhibition @ 1 uM” value does the source give for `COc1cc(C(=O)Nc2ccc(C#N)c(Cl)c2)ccc1-c1ncccc1Cl` [Compound 1265] here?
Answer: ++++ (compound exhibited 75% or greater inhibition of calcium ion influx induced by capsaicin stimulation)

Question: How did the “% Inhibition @ 1 uM” value turn out when `COc1cc(C(=O)Nc2ccncn2)ccc1-c1ncccc1Cl` [Compound 1242] was run?
Answer: ++ (compound exhibited 25-50% inhibition of calcium ion influx induced by capsaicin stimulation)

Question: Which “% Inhibition @ 1 uM” value does the source give for `COc1cc(C(=O)Nc2ccc(Cl)c(C(=O)O)c2)ccc1-c1ncccc1Cl` [Compound 1259] here?
Answer: ++++ (compound exhibited 75% or greater inhibition of calcium ion influx induced by capsaicin stimulation)

Question: For `CC(C)c1ccc(NC(=O)c2ccc(-c3ncccc3Cl)cc2)cc1` [Compound 1042], which “% Inhibition @ 1 uM” value is on record?
Answer: ++++ (compound exhibited 75% or greater inhibition of calcium ion influx induced by capsaicin stimulation)

Question: Which “% Inhibition @ 1 uM” value does the source give for `O=C(Nc1ccc(C(F)(F)F)cc1)c1ccc(-c2ncccc2Cl)cn1` [Compound 1325] here?
Answer: + (compound exhibited 0-25% inhibition of calcium ion influx induced by capsaicin stimulation)

Question: With `O=C(Nc1ccc2cn[nH]c2c1)c1ccc(-c2ncccc2Cl)cc1` [Compound 1290] as the compound, how does the “% Inhibition @ 1 uM” value read?
Answer: ++ (compound exhibited 25-50% inhibition of calcium ion influx induced by capsaicin stimulation)

Question: For `CCCCc1ccc(NC(=O)c2ccc(-c3ncccc3Cl)cn2)cc1` [Compound 1319], which “% Inhibition @ 1 uM” value is on record?
Answer: +++ (compound exhibited 50-75% inhibition of calcium ion influx induced by capsaicin stimulation)

Question: Which “% Inhibition @ 1 uM” value does the source give for `COc1cc(C(=O)Nc2cccc(OC(C)C)c2)ccc1-c1ncccc1Cl` [Compound 1270] here?
Answer: + (compound exhibited 0-25% inhibition of calcium ion influx induced by capsaicin stimulation)

Question: For `O=C(Nc1ccc2ncccc2c1)c1ccc(-c2ncccc2Cl)cc1F` [Compound 1124], which “% Inhibition @ 1 uM” value is on record?
Answer: ++ (compound exhibited 25-50% inhibition of calcium ion influx induced by capsaicin stimulation)

Question: `CCOC(=O)c1cccc(NC(=O)c2ccc(-c3ncccc3Cl)cc2)c1` [Compound 1286] was tested. Which “% Inhibition @ 1 uM” value did it give?
Answer: + (compound exhibited 0-25% inhibition of calcium ion influx induced by capsaicin stimulation)

Question: With `O=C(Nc1cc[nH]n1)c1ccc(-c2ncccc2Cl)cc1` [Compound 1026] as the compound, how does the “% Inhibition @ 1 uM” value read?
Answer: + (compound exhibited 0-25% inhibition of calcium ion influx induced by capsaicin stimulation)

Question: `O=C(Nc1ccc(Cl)c(C(F)(F)F)c1)c1ccc(-c2ncccc2Cl)cc1` [Compound 1037] was tested. Which “% Inhibition @ 1 uM” value did it give?
Answer: +++ (compound exhibited 50-75% inhibition of calcium ion influx induced by capsaicin stimulation)

Question: Which “% Inhibition @ 1 uM” value does the source give for `O=C(Nc1cccnc1Cl)c1ccc(-c2ncccc2Cl)cc1F` [Compound 1118] here?
Answer: + (compound exhibited 0-25% inhibition of calcium ion influx induced by capsaicin stimulation)

Question: For `Cc1cc(NC(=O)c2ccc(-c3ncccc3Cl)cc2F)nc(C)n1` [Compound 1123], which “% Inhibition @ 1 uM” value is on record?
Answer: +++ (compound exhibited 50-75% inhibition of calcium ion influx induced by capsaicin stimulation)

Question: `Cc1cc(NC(=O)c2ccc(-c3ncccc3Cl)cn2)nc(C)n1` [Compound 1343] was tested. Which “% Inhibition @ 1 uM” value did it give?
Answer: + (compound exhibited 0-25% inhibition of calcium ion influx induced by capsaicin stimulation)

Question: For `COc1cc(C(=O)Nc2cc(C)nc(C)n2)ccc1-c1ncccc1Cl` [Compound 1249], which “% Inhibition @ 1 uM” value is on record?
Answer: + (compound exhibited 0-25% inhibition of calcium ion influx induced by capsaicin stimulation)

Question: With `COc1ccc(NC(=O)c2ccc(-c3ncccc3Cl)cc2F)cc1Cl` [Compound 1096] as the compound, how does the “% Inhibition @ 1 uM” value read?
Answer: ++ (compound exhibited 25-50% inhibition of calcium ion influx induced by capsaicin stimulation)

Question: For `CC(C)(CO)NC(=O)c1ccc(-c2ncccc2Cl)cc1` [Compound 1058], which “% Inhibition @ 1 uM” value is on record?
Answer: + (compound exhibited 0-25% inhibition of calcium ion influx induced by capsaicin stimulation)

Question: With `O=C(Nc1ccc(N2CCOCC2)c(Cl)c1)c1ccc(-c2ncccc2Cl)c(F)c1` [Compound 1200] as the compound, how does the “% Inhibition @ 1 uM” value read?
Answer: ++++ (compound exhibited 75% or greater inhibition of calcium ion influx induced by capsaicin stimulation)

Question: `O=C(Nc1ccccc1Cl)c1ccc(-c2ncccc2Cl)cn1` [Compound 1314] was tested. Which “% Inhibition @ 1 uM” value did it give?
Answer: ++++ (compound exhibited 75% or greater inhibition of calcium ion influx induced by capsaicin stimulation)

Question: Which “% Inhibition @ 1 uM” value does the source give for `O=C(Nc1ccc(N2CCOCC2)cc1)c1ccc(-c2ncccc2Cl)cn1` [Compound 1334] here?
Answer: + (compound exhibited 0-25% inhibition of calcium ion influx induced by capsaicin stimulation)

Question: Which “% Inhibition @ 1 uM” value does the source give for `O=C(Nc1ccc(C2CCCCC2)cc1)c1ccc(-c2ncccc2Cl)cc1` [Compound 1044] here?
Answer: ++++ (compound exhibited 75% or greater inhibition of calcium ion influx induced by capsaicin stimulation)

Question: For `O=C(Nc1cccc(OC(F)(F)F)c1)c1ccc(-c2ncccc2Cl)cc1` [Compound 1294], which “% Inhibition @ 1 uM” value is on record?
Answer: + (compound exhibited 0-25% inhibition of calcium ion influx induced by capsaicin stimulation)

Question: Which “% Inhibition @ 1 uM” value does the source give for `CC(C)Oc1cccc(NC(=O)c2ccc(-c3ncccc3Cl)c(F)c2)c1` [Compound 1194] here?
Answer: + (compound exhibited 0-25% inhibition of calcium ion influx induced by capsaicin stimulation)

Question: How did the “% Inhibition @ 1 uM” value turn out when `CCCCc1ccc(NC(=O)c2ccc(-c3ncccc3Cl)c(F)c2)cc1` [Compound 1144] was run?
Answer: ++++ (compound exhibited 75% or greater inhibition of calcium ion influx induced by capsaicin stimulation)

Question: With `O=C(Nc1ccc(C(F)(F)F)cn1)c1ccc(-c2ncccc2Cl)c(F)c1` [Compound 1166] as the compound, how does the “% Inhibition @ 1 uM” value read?
Answer: ++ (compound exhibited 25-50% inhibition of calcium ion influx induced by capsaicin stimulation)

Question: With `O=C(Nc1ccc2[nH]ccc2c1)c1ccc(-c2ncccc2Cl)cc1` [Compound 1021] as the compound, how does the “% Inhibition @ 1 uM” value read?
Answer: ++++ (compound exhibited 75% or greater inhibition of calcium ion influx induced by capsaicin stimulation)

Question: For `O=C(Nc1ccc2c(c1)OCCO2)c1ccc(-c2ncccc2Cl)cc1` [Compound 1018], which “% Inhibition @ 1 uM” value is on record?
Answer: ++ (compound exhibited 25-50% inhibition of calcium ion influx induced by capsaicin stimulation)

Question: With `CCC(C)(C)NC(=O)c1ccc(-c2ncccc2Cl)cc1` [Compound 1070] as the compound, how does the “% Inhibition @ 1 uM” value read?
Answer: + (compound exhibited 0-25% inhibition of calcium ion influx induced by capsaicin stimulation)

Question: How did the “% Inhibition @ 1 uM” value turn out when `Cc1ccnc(NC(=O)c2ccc(-c3ncccc3Cl)c(F)c2)c1` [Compound 1162] was run?
Answer: ++++ (compound exhibited 75% or greater inhibition of calcium ion influx induced by capsaicin stimulation)

Question: How did the “% Inhibition @ 1 uM” value turn out when `O=C(Nc1ccc(N2CCOCC2)c(Cl)c1)c1ccc(-c2ncccc2Cl)cc1` [Compound 1301] was run?
Answer: +++ (compound exhibited 50-75% inhibition of calcium ion influx induced by capsaicin stimulation)

Question: Which “% Inhibition @ 1 uM” value does the source give for `COc1cccc(NC(=O)c2ccc(-c3ncccc3Cl)c(F)c2)c1` [Compound 1136] here?
Answer: + (compound exhibited 0-25% inhibition of calcium ion influx induced by capsaicin stimulation)

Question: For `O=C(Nc1ccc(C(F)(F)F)cn1)c1ccc(-c2ncccc2Cl)cc1F` [Compound 1114], which “% Inhibition @ 1 uM” value is on record?
Answer: + (compound exhibited 0-25% inhibition of calcium ion influx induced by capsaicin stimulation)

Question: `COc1ccccc1NC(=O)c1ccc(-c2ncccc2Cl)c(OC)c1` [Compound 1211] was tested. Which “% Inhibition @ 1 uM” value did it give?
Answer: ++ (compound exhibited 25-50% inhibition of calcium ion influx induced by capsaicin stimulation)

Question: For `O=C(Nc1ccc(F)cc1)c1ccc(-c2ncccc2Cl)cn1` [Compound 1308], which “% Inhibition @ 1 uM” value is on record?
Answer: + (compound exhibited 0-25% inhibition of calcium ion influx induced by capsaicin stimulation)

Question: For `O=C(Nc1ccccc1)c1ccc(-c2ncccc2Cl)cn1` [Compound 1306], which “% Inhibition @ 1 uM” value is on record?
Answer: ++++ (compound exhibited 75% or greater inhibition of calcium ion influx induced by capsaicin stimulation)

Question: How did the “% Inhibition @ 1 uM” value turn out when `Cc1ccnc(NC(=O)c2ccc(-c3ncccc3Cl)cn2)c1` [Compound 1335] was run?
Answer: + (compound exhibited 0-25% inhibition of calcium ion influx induced by capsaicin stimulation)

Question: `COc1cccc(NC(=O)c2ccc(-c3ncccc3Cl)cc2)c1` [Compound 1019] was tested. Which “% Inhibition @ 1 uM” value did it give?
Answer: + (compound exhibited 0-25% inhibition of calcium ion influx induced by capsaicin stimulation)
